Experiments:
HT-29 = test: cells; parameters: MTT proliferation assay, sigmoidal dose-response fit, colon and pancreatic cancer cell lines; conditions: Homo sapiens, HT-29; 48 h MTT
MiaPaCa-2 = test: cells; parameters: MTT proliferation assay, sigmoidal dose-response fit, colon and pancreatic cancer cell lines; conditions: Homo sapiens, MIA PaCa-2; 48 h MTT
SW1990 = test: cells; parameters: MTT proliferation assay, sigmoidal dose-response fit, colon and pancreatic cancer cell lines; conditions: Homo sapiens, SW1990; 48 h MTT
DLD-1 = test: cells; parameters: MTT proliferation assay, sigmoidal dose-response fit, colon and pancreatic cancer cell lines; conditions: Homo sapiens, DLD-1; 48 h MTT
[1] = target: T1, Doublecortin-like kinase 1 (DCLK1) (Homo sapiens, UniProt O15075); test: in vitro kinase assay (Kinase-Glo luminescence) with purified active DCLK1, autocamtide II substrate and […] ATP; assay type: biochemical
T1 sequence (O15075 1-740): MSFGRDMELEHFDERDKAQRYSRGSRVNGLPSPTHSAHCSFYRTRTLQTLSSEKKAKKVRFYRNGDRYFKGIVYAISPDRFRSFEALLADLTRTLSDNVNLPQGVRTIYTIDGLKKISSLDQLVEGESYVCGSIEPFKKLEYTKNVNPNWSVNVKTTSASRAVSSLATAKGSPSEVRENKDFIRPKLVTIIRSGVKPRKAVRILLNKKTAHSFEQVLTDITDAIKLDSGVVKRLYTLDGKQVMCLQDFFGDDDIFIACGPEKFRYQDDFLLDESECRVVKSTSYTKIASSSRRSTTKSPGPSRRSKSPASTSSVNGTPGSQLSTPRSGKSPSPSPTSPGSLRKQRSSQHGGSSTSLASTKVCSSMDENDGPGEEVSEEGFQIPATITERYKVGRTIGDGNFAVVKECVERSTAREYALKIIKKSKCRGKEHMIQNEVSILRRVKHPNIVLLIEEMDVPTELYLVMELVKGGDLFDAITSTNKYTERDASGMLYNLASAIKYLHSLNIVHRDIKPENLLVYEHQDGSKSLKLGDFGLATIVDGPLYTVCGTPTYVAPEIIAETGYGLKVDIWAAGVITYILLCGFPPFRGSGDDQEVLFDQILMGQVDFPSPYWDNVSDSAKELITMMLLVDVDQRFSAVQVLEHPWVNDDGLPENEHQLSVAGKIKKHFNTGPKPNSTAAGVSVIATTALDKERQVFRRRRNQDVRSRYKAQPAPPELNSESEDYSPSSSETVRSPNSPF

**Q.** Which IC50 (HT-29) does the source give for `COc1cc(C(=O)N2CCC(N3CCN(C)CC3)CC2)ccc1Nc1ncc2c(n1)N(C)c1ccccc1C(=O)N2C` [LRRK2-IN-1] here?
**A.** The IC50 was 2070 nM.

**Q.** What about the IC50 (MiaPaCa-2) of the same compound?
**A.** Its IC50 is 2010 nM.

**Q.** What about the IC50 (SW1990) of the same compound?
**A.** Its IC50 is 5190 nM.

**Q.** And the IC50 (DLD-1)?
**A.** The IC50 was 3220 nM.

**Q.** And the IC50 [1]?
**A.** Its IC50 is 2.61 nM.
